Results on 6 molecules are retold here after PubChem BioAssay (NCI).

Test systems include SF-539 CNS; HOP-62 NSCLC; KM12 colon; HOP-92 NSCLC; MCF7 breast; RPMI-8226 leukemia; SN12C renal; SF-295 CNS; UACC-62 melanoma; NCI-H522 lung.
Common to all, as to assay: NCI tumour cell line growth inhibition, 48 h

Each structure is given as a SMILES string. Values joined by “and” are separate entries in the source; they are usually repeats but may differ in a detail not shown here. Identical values can stand only once.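 Protocol summary: plate cells (96-well), add compound at 5 concentrations, incubate 48 h, interpolate endpoints linearly. GI50: concentration for 50% inhibition of growth. TGI denotes the concentration required for complete inhibition of growth.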

As to `O=C1Nc2ccccc2/C1=C1\CCc2cc(O)ccc21`, the GI50 with SF-539 CNS is 9.64 µM; in the assay on HOP-62 NSCLC it was 9.95 µM; in the assay on KM12 colon, 1.01 µM; in the assay on HOP-92 NSCLC, 5.93 µM; in the assay with MCF7 breast, 2.74 µM; in the assay on RPMI-8226 leukemia, 9.71 µM. Also, the GI50 was 7.84 µM in the assay on SN12C renal, 11.3 µM with SF-295 CNS, 7.73 µM in the assay on UACC-62 melanoma and 9.85 µM in the assay on NCI-H522 lung. Further, the TGI is > 25 µM with SF-539 CNS; > 25 µM in the assay on HOP-62 NSCLC; > 25 µM in the assay on KM12 colon; 22.8 µM in the assay on HOP-92 NSCLC; > 25 µM in the assay with MCF7 breast; > 25 µM in the assay with RPMI-8226 leukemia. The TGI in the assay on SN12C renal, in the assay on SF-295 CNS, in the assay on UACC-62 melanoma and in the assay on NCI-H522 lung was > 25 µM in each case.
As for `O=C(/C(=C\c1c(-c2ccccc2)[nH]c2ccccc12)S(=O)(=O)c1ccccc1)c1ccccc1`, the GI50 was > 100 µM in the assay on SF-539 CNS; > 100 µM in the assay with HOP-62 NSCLC; 5.06 µM in the assay with KM12 colon; 4.95 µM in the assay with HOP-92 NSCLC; 5.63 µM with MCF7 breast; 7.61 µM with RPMI-8226 leukemia. Also, the GI50 in the assay with SN12C renal is > 100 µM; in the assay on SF-295 CNS it was 3.47 µM; with UACC-62 melanoma, 8.95 µM; in the assay on NCI-H522 lung it was 91.8 µM. In addition, the TGI in the assay on SF-539 CNS, in the assay with HOP-62 NSCLC, with KM12 colon, with HOP-92 NSCLC, in the assay with MCF7 breast and with RPMI-8226 leukemia was > 100 µM throughout. Moreover, the TGI in the assay with SN12C renal, with SF-295 CNS, in the assay on UACC-62 melanoma and in the assay on NCI-H522 lung was > 100 µM in each case.
Take `COc1ccc(-c2ccc3c(N4CCOC[C@@H]4C)nc(N4CCOC[C@@H]4C)nc3n2)cc1CO`: the GI50 in the assay with SF-539 CNS was 0.00431 µM and 0.026 µM; with HOP-62 NSCLC it was 0.00514 µM and 0.028 µM; in the assay on KM12 colon it was 0.00626 µM and 0.0449 µM; with HOP-92 NSCLC, 0.00134 µM and 0.0105 µM; in the assay on MCF7 breast, 0.00432 µM and < 0.0133 µM; with RPMI-8226 leukemia, 0.00363 µM and 0.0281 µM. Besides, the GI50 is 0.0053 µM and 0.0208 µM with SN12C renal; 0.00412 µM and < 0.011 µM with SF-295 CNS; 0.00337 µM and 0.019 µM with UACC-62 melanoma; 0.00484 µM with NCI-H522 lung. Besides, the TGI with SF-539 CNS was 0.0831 µM and 0.268 µM; in the assay with HOP-62 NSCLC, 1.65 µM and 0.527 µM; in the assay with KM12 colon it was > 100 µM; in the assay on MCF7 breast, > 3.27 µM and 1.34 µM; with SN12C renal it was > 100 µM; with SF-295 CNS, 0.0462 µM and 0.18 µM.
Take `c1ccc2c(c1)[nH]c1c2cc[n+]2cc3c(cc12)CCCC3`: the GI50 in the assay on SF-539 CNS is 3 µM; in the assay on HOP-62 NSCLC it was 3.77 µM; in the assay on KM12 colon it was 2.3 µM; in the assay on HOP-92 NSCLC, 4.57 µM; with RPMI-8226 leukemia, 2.16 µM; in the assay with SN12C renal, 3.05 µM. The GI50 in the assay with UACC-62 melanoma is 2.02 µM; in the assay with NCI-H522 lung, 2.27 µM. In addition, the TGI is 11.7 µM and 6.7 µM in the assay with SF-539 CNS; 17 µM and 7.86 µM with HOP-62 NSCLC; 9.85 µM and 6.53 µM with KM12 colon; 24.8 µM with HOP-92 NSCLC; 10.9 µM and 11 µM in the assay with MCF7 breast; 6.28 µM and 3.73 µM with RPMI-8226 leukemia. Also, the TGI in the assay with SN12C renal is 12.8 µM and 12.1 µM; with SF-295 CNS it was 16 µM and 14.5 µM; in the assay on UACC-62 melanoma it was 4.97 µM; in the assay on NCI-H522 lung, 5.48 µM and 6.23 µM.
As to `COc1ccc(-c2nccn2-c2ccc(OC)cc2)cc1`, the GI50 is 28 µM in the assay on SF-539 CNS; 22 µM in the assay on HOP-62 NSCLC; 17.9 µM in the assay on KM12 colon; 2.45 µM with HOP-92 NSCLC; 24.4 µM in the assay on MCF7 breast; 13.4 µM in the assay on RPMI-8226 leukemia. Also, the GI50 in the assay on SN12C renal is 20.8 µM; in the assay on SF-295 CNS it was 21 µM; in the assay with UACC-62 melanoma, 13.9 µM; in the assay with NCI-H522 lung, 17 µM. Also, the TGI in the assay with SF-539 CNS was 90.4 µM; in the assay with HOP-62 NSCLC, 74.4 µM; in the assay on KM12 colon it was 65.3 µM; in the assay with HOP-92 NSCLC it was > 41.7 µM; in the assay with MCF7 breast, > 66.1 µM; in the assay on RPMI-8226 leukemia, 36.6 µM. Besides, the TGI was found to be 50.3 µM with SN12C renal, 74.2 µM with SF-295 CNS, 48.9 µM with UACC-62 melanoma and 42.9 µM in the assay on NCI-H522 lung.
Consider `CO[C@H]1Nc2c(ccc(C)c2O)C(=O)N2C=C(/C=C/C(N)=O)C[C@@H]12`, for which the TGI with SF-539 CNS was 0.0384 µM; in the assay with HOP-62 NSCLC, 0.0386 µM; with KM12 colon, 7.2 µM; in the assay with HOP-92 NSCLC it was 0.217 µM; in the assay with MCF7 breast it was 8.05 µM; with RPMI-8226 leukemia, 8.51 µM. The TGI with SN12C renal was 1.05 µM; with SF-295 CNS it was 1.75 µM; in the assay with UACC-62 melanoma it was 0.036 µM; in the assay on NCI-H522 lung, 0.182 µM.
